Measurements as given in article PMC10743929, “Amphiphilic Sialic Acid Derivatives as Potential Dual-Specific Inhibitors of Influenza Hemagglutinin and Neuraminidase” (International Journal of Molecular Sciences, 2023).
“Also recorded” adds a separate entry of the source. Like-named read-outs stand apart in the source and are kept apart here. Marks after values point to notes of the source that are not given here.

Legend:
viral neuraminidase = details: cited from earlier work
hemagglutinin = details: cited from earlier work
IBV = assay: CPE reduction assay, influenza B in MDCK cells; assay type: cell-based, influenza B virus (B/Ned/537/05); details: Influenza B virus, 72 h
Experimental: (§1) The process of CPE reduction assay for the influenza virus was described previously. The virus strains were A/Virginia/ATCC3/2009, A/PR/8 (A/H1N1), A/Victoria/361/11, A/HK/7/87 (A/H3N2), and B/Ned/537/05 (IBV). On day 0, Madin-Darby canine kidney (MDCK) cells in 96-well plates were infected with influenza virus at a multiplicity of infection (MOI) of 0.0004 plaque forming units (PFU) per cell, and that was incubated at 35 °C for 3 days. After the third day, virus-induced CPE and compound cytotoxicity were scored by microscopy, and the data were confirmed by formazan-based MTS cell viability assay (CellTiter 96® AQueous One Solution Cell Proliferation Assay from Promega, Madison, WI, USA). […] Compound cytotoxicity was expressed as the concentration of the compound causing minimal changes in cell morphology (MCC) and 50% cytotoxic concentration (CC50) based on the MTS assay.

in vitro = details: dog
IAV (A/H1N1) = assay: CPE reduction assay, influenza A/H1N1 in MDCK cells; assay type: cell-based, influenza A virus A/H1N1 (A/Virginia/ATCC3/2009 or A/PR/8); details: Influenza A virus, H1N1, 72 h
Experimental: as §1

[1] = tested on: Madin-Darby canine kidney (MDCK) cells; details: dog, 3 days
IAV (A/H3N2) = assay: CPE reduction assay, influenza A/H3N2 in MDCK cells; assay type: cell-based, influenza A virus A/H3N2 (A/Victoria/361/11 or A/HK/7/87); details: Influenza A virus, H3N2, 72 h
Experimental: as §1

[2] = Dynamic light scattering of aggregates; details: RSD of 3 measurements in brackets
H3N2 Hemagglutinin = H3N2 Hemagglutinin (Influenza A virus, UniProt P03437); assay: SPR affinity toward immobilized H3N2 hemagglutinin; assay type: binding, influenza type H3N2 (A/Aichi/2/1968); details: for Kd: KD(app)
Experimental: (§2) SPR experiments were conducted using a BIAcore S200 instrument (Cytiva, Marlborough, MA, USA) employing a CM5 chip with a carboxymethyldextran surface (Cytiva, USA). Hemagglutinins (ThermoFisher Scientific, Invitrogen, Waltham, MA, USA) from influenza type H3N2 (A/Aichi/2/1968) and H1N1 (A/Puerto Rico/8/34), as well as neuraminidase (Invitrogen, USA) from H1N1 (A/California/04/2009), were immobilized on the chip surface following the standard amine coupling procedure outlined in the manufacturer’s instructions. This immobilization process was performed at a flow rate of 10 μL/min using PBST as the running buffer. The chip surface was initially activated using an N-ethyl-N-(3-dimethylaminopropyl)carbodiimide/N-hydroxysuccinimide solution. Subsequently, 50 μg/mL solutions of individual proteins in 10 mM sodium acetate, pH 5, were injected into channels 2, 3, and 4, respectively. To block any unreacted groups, all channels were treated with 1 M ethanolamine, resulting in a final response of 4500 RU for HAs and 2700 RU for neuraminidase. Channel 1 was activated and blocked in the same manner, without the injection of any protein, serving as a blank.
(§3) Tested compounds in a PBST working buffer (20 mM Na-phosphate, 150 mM NaCl, pH 7.4, 0.005% Tween 20, 5% DMSO) were injected into the chip at a flow rate of 30 μL/min at 25 °C. The injection duration was 3 min, followed by a 10 min buffer flow to facilitate spontaneous dissociation. Each compound was injected as a two-fold dilution series within a concentration range of 0.78–800 μM (2.44–2500 μM for sialic acid). After each compound concentration series, five buffer injections were performed to ensure complete dissociation. To determine the apparent KD toward the immobilized proteins, the steady-state responses of the blank-subtracted curves from each replicate were fitted using a single-site binding model.
(§4) In experiments conducted in a DMSO-free buffer (20 mM Na-phosphate, 150 mM NaCl, pH 7.4, 0.005% Tween 20), each replicate was followed by a two-fold dilution series of DMSO, matching the DMSO concentration in the compound solutions. In this case, the steady-state response of the blank-subtracted curve was corrected by the corresponding blank-subtracted DMSO steady-state response. The final values from each replicate were fitted using a single-site binding model using Origin 7 (OriginLab Corporation, Northampton, MA, USA).
(§5) For all experiments, the final KD(app) and Rmax values, along with their standard deviations, were obtained through statistical analysis based on three replicates.

H1N1 Hemagglutinin = H1N1 Hemagglutinin (Influenza A virus, UniProt P03452); assay: SPR affinity toward immobilized H1N1 hemagglutinin; assay type: binding, influenza type H1N1 (A/Puerto Rico/8/34); details: for Kd: KD(app)
Chain of H1N1 Hemagglutinin (P03452 18-565): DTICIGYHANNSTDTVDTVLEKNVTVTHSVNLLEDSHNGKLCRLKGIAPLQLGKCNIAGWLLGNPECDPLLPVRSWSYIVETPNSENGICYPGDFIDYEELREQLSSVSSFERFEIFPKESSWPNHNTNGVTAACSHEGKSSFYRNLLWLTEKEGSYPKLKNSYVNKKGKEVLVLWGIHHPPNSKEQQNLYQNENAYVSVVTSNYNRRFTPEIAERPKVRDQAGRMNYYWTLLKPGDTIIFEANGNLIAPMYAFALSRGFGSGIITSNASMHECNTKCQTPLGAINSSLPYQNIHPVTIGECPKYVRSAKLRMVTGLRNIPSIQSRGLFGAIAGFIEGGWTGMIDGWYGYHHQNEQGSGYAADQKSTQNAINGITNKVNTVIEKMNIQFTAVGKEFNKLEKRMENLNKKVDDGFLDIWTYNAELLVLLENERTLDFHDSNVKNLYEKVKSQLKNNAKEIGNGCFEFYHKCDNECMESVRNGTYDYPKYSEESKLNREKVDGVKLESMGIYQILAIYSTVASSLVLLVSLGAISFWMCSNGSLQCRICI
Experimental: as §2, §3, §4, §5

H1N1 Neuraminidase = H1N1 Neuraminidase (Influenza A virus, UniProt C3W5S3); assay: SPR affinity toward immobilized H1N1 neuraminidase; assay type: binding, influenza H1N1 (A/California/04/2009); details: PBST with 5% DMSO, 25 °C
Experimental: as §2, §3, §5

influenza A strains = assay: Anti-influenza activity against influenza A strains (H1N1 and H3N2) in MDCK cells; assay type: cell-based, influenza A virus (H1N1 and H3N2 types); details: for activity against influenza A strains (in words): MDCK cells, H1N1 and H3N2; for ratio of CC50 to EC50 (selectivity): both determined by MTS assay, at best
Experimental: as §1

[3] = MTS cell viability assay, day 3, read-out: Antiviral EC50, IBV, MTS
[4] = microscopic scoring of cytopathic effect, day 3, read-out: Antiviral EC50, IBV, CPE
[5] = MTS cell viability assay, day 3, read-out: Antiviral EC50, IAV (A/H1N1), MTS
[6] = microscopic scoring of cytopathic effect, day 3, read-out: Antiviral EC50, IAV (A/H1N1), CPE
[7] = MTS cell viability assay, day 3, read-out: Antiviral EC50, IAV (A/H3N2), MTS
[8] = microscopic scoring of cytopathic effect, day 3, read-out: Antiviral EC50, IAV (A/H3N2), CPE
[9] = 0.1 mg/mL (diluted with water), 25 °C
[10] = 1 mg/mL in water/DMSO 9:1, 25 °C
[11] = H3N2 Hemagglutinin, PBST with 5% DMSO, 25 °C, steady-state single-site fit
[12] = H3N2 hemagglutinin, absence of DMSO, DMSO-free running buffer
[13] = H1N1 Hemagglutinin, PBST with 5% DMSO, 25 °C, steady-state single-site fit
[14] = H1N1 hemagglutinin, absence of DMSO, DMSO-free running buffer

SMILES	EC50 (IBV; [3]) [µM]	EC50 (IBV; [4]) [µM]	CC50 (in vitro) [µM]	EC50 (IAV (A/H1N1); [5]) [µM]	EC50 (IAV (A/H1N1); [6]) [µM]	Cytotoxicity MCC (minimum cytotoxic concentration) [1]	EC50 (IAV (A/H3N2); [7]) [µM]	EC50 (IAV (A/H3N2); [8]) [µM]	activity against influenza A strains (in words) (influenza A strains)	other results
CC(=O)NC1C(OC(=O)CNS(=O)(=O)c2cccc3c(N(C)C)cccc23)CC(OCCCCCCC(=O)NCc2cccc3ccccc23)(C(=O)O)OC1C(O)C(O)CO (centres unmarked) [Compound 2]										substrate for viral neuraminidase (in words) (viral neuraminidase): not a substrate; affinity for hemagglutinin (in words) (hemagglutinin): high affinity
CCCCCCCCCCOC1C(OC)OC(COCCOCCOCCOCCn2cc(CSC3(C(=O)O)CC(O)C(NC(C)=O)C(C(O)C(O)CO)O3)nn2)C(OCc2ccc(OC)cc2)C1OCCCCCCCCCC (centres unmarked) [Compound 12a]	> 100	> 100	64	> 100	> 100	20 ^d µM	> 100	> 100		d (average diameter of particles, DLS) [2, 9]: 170 (15.8%) ^a nm; d (average diameter of particles, DLS) [2, 10]: 126 (2.00%) ^a nm
CCCCCCCCOC1C(OC)OC(COCCOCCOCCOCCn2cc(CSC3(C(=O)O)CC(O)C(NC(C)=O)C(C(O)C(O)CO)O3)nn2)C(OCc2ccc(OC)cc2)C1OCCCCCCCC (centres unmarked) [Compound 12b]	> 100	> 100	34 ± 13	15 ± 5	8.9	39 ± 20 µM	8.7 ± 3.6	8.9	effective; also recorded: moderate effect	Rmax, H3N2 hemagglutinin, absence of DMSO (H3N2 Hemagglutinin; DMSO-free running buffer): 454 ± 39 RU; Kd (H3N2 Hemagglutinin; [11]): 124 ± 21 µM; Kd (H3N2 Hemagglutinin; [12]): 279 ± 98 µM; Rmax, H3N2 Hemagglutinin (H3N2 Hemagglutinin; PBST with 5% DMSO, 25 °C): 135 ± 11 RU; Rmax, H1N1 hemagglutinin, absence of DMSO (H1N1 Hemagglutinin; DMSO-free running buffer): 305 ± 30 RU; Kd (H1N1 Hemagglutinin; [13]): 161 ± 20 µM; Kd (H1N1 Hemagglutinin; [14]): 187 ± 41 µM; Rmax, H1N1 Hemagglutinin (H1N1 Hemagglutinin; PBST with 5% DMSO, 25 °C): 130 ± 12 RU; Rmax, H1N1 Neuraminidase (H1N1 Neuraminidase): 175 ± 23 RU; ratio of CC50 to EC50 (selectivity) (influenza A strains): ≤ 4 factor; d (average diameter of particles, DLS) [2, 9]: 108 (13.4%) ^a nm; d (average diameter of particles, DLS) [2, 10]: 96 (1.19%) ^a nm
CCCCOC1C(OC)OC(COCCOCCOCCOCCn2cc(CSC3(C(=O)O)CC(O)C(NC(C)=O)C(C(O)C(O)CO)O3)nn2)C(OCc2ccc(OC)cc2)C1OCCCC (centres unmarked) [Compound 12c]	> 100	> 100	> 100	> 100	> 100	100 ± 0 µM	> 100	> 100		d (average diameter of particles, DLS) [2, 9]: 111 (14.2%) ^a nm; d (average diameter of particles, DLS) [2, 10]: 103 (28.3%) ^a nm
CCCCCCCCCCOCC1OC(CCCSC2(C(=O)O)CC(O)C(NC(C)=O)C(C(O)C(O)CO)O2)C=CC1OCCCCCCCCCC (centres unmarked) [Compound 18a]	> 100	> 100	10	> 100	> 100	20 ^d µM	> 100	> 100		
CCCCCCCCOCC1OC(CCCSC2(C(=O)O)CC(O)C(NC(C)=O)C(C(O)C(O)CO)O2)C=CC1OCCCCCCCC (centres unmarked) [Compound 18b]	> 100	> 100	32 ± 8	23	25	63 ± 19 µM	6.2 ± 3	4.8 ± 1	effective; also recorded: moderate effect	Rmax, H3N2 hemagglutinin, absence of DMSO (H3N2 Hemagglutinin; DMSO-free running buffer): 925 ± 23 RU; Kd (H3N2 Hemagglutinin; [12]): 357 ± 23 µM; Rmax, H1N1 hemagglutinin, absence of DMSO (H1N1 Hemagglutinin; DMSO-free running buffer): 783 ± 8 RU; Kd (H1N1 Hemagglutinin; [14]): 286 ± 19 µM; Rmax, H1N1 Neuraminidase (H1N1 Neuraminidase): 166 ± 53 RU; ratio of CC50 to EC50 (selectivity) (influenza A strains): ≤ 5 factor
CCCCCCOCC1OC(CCCSC2(C(=O)O)CC(O)C(NC(C)=O)C(C(O)C(O)CO)O2)C=CC1OCCCCCC (centres unmarked) [Compound 18c]	> 100	> 100	> 100	> 100	> 100	100 ^d µM	> 100	> 100		
CCCCCCCCOCC1OC(OCCOCCOCCOCCOCCCSC2(C(=O)O)CC(O)C(NC(C)=O)C(C(O)C(O)CO)O2)C=CC1OCCCCCCCC (centres unmarked) [Compound 23a]	> 100	> 100	54	> 100	> 100	40 ^d µM	> 100	> 100	no anti-influenza effect	Rmax, H3N2 hemagglutinin, absence of DMSO (H3N2 Hemagglutinin; DMSO-free running buffer): 200 ± 23 RU; Kd (H3N2 Hemagglutinin; [11]): 1220 ± 737 µM; Kd (H3N2 Hemagglutinin; [12]): 134 ± 48 µM; Rmax, H3N2 Hemagglutinin (H3N2 Hemagglutinin; PBST with 5% DMSO, 25 °C): 148 ± 43 RU; Rmax, H1N1 hemagglutinin, absence of DMSO (H1N1 Hemagglutinin; DMSO-free running buffer): 197 ± 24 RU; Kd (H1N1 Hemagglutinin; [13]): 6220 ± 4040 µM; Kd (H1N1 Hemagglutinin; [14]): 106 ± 36 µM; Rmax, H1N1 Hemagglutinin (H1N1 Hemagglutinin; PBST with 5% DMSO, 25 °C): 505 ± 275 RU; Rmax, H1N1 Neuraminidase (H1N1 Neuraminidase): 74 ± 13 RU
CCCCCCOCC1OC(OCCOCCOCCOCCOCCCSC2(C(=O)O)CC(O)C(NC(C)=O)C(C(O)C(O)CO)O2)C=CC1OCCCCCC (centres unmarked) [Compound 23b]	> 100	> 100	> 100	> 100	> 100	>100 µM	> 100	> 100	ineffective	
CO[C@]1(C(=O)O)C[C@H](O)[C@@H](NC(C)=O)[C@H]([C@H](O)[C@H](O)CO)O1 [Methyl α-glycoside of sialic acid]										binding to hemagglutinin (in words) (hemagglutinin): bind weakly
NC(=O)c1ncn([C@@H]2O[C@H](CO)[C@@H](O)[C@H]2O)n1 [Ribavirin, reference compound]	5.4	10 ± 4	> 250	25 ± 2	24 ± 6		24 ± 4	30 ± 6		
COC1(C(=O)O)CC(O)C(NC(C)=O)C(C(O)C(O)CO)O1 (stereo not drawn) [methyl β-glycoside]										binding to hemagglutinin (in words) (hemagglutinin): does not bind at all
